Assay results from patent US6323235A, “Benzene-condensed heterocyclic derivatives and their uses” (priority 1995, dated 2001).

Assays:
[1] = test system: platelet aggregation induced by TXA2 agonist U-46619; assay: Platelet Aggregation-inhibition Action 1 (U-46619-induced, platelet-rich plasma); type: cell-based; details: U-46619 1-4 μM final, PRP, compound added one minute before U-46619
Description: Platelet Aggregation-inhibition Action 1
(§1) Blood collected from medial cubital vein is centrifuged at 800 rmp for 10 minutes and the upper portion of the resultant is collected as platelet-rich plasma (PRP). The PRP is dividedly poured into small test tubes and a TXA2 agonist U-46619 is added thereto (final concentration: 1-4 μM) so as to induce platelet aggregation. The degree of platelet aggregation is measured in terms of change in turbidity by a platelet aggregation measuring apparatus (Hematoracer, NIKO BIOSCIENCE). The compound is added one minute before the addition of U-46619 and the concentration of the compound at which the aggregation is inhibited by 50% is calculated as IC50 value.

[2] = test system: platelet aggregation induced by ADP; assay: Platelet Aggregation-Inhibition Action 2 (ADP-induced, platelet-rich plasma); type: cell-based; details: ADP 1-3 μM final, PRP, compound added one minute before ADP
Description: Platelet Aggregation-Inhibition Action 2
as §1, with “PRP).” for “(PRP).”, “ADP” for “a TXA2 agonist U-46619”, “1-3” for “1-4”, “Hematoracer,” for “(Hematoracer,”, “ADP” for “U-46619 and”

TXA2 receptor [3] = target: T1, TXA2 receptor (Oryctolagus cuniculus, UniProt Q6WQI8); assay: TXA2 Receptor Binding Test 1 ([3H]SQ29548, washed rabbit platelets); parameters: species or system New Zealand White rabbit; details: [3H]SQ29548 3 nM, rabbit washed platelets 10 mg/ml, 25° C., 60 minutes
T1 sequence (Q6WQI8 1-233): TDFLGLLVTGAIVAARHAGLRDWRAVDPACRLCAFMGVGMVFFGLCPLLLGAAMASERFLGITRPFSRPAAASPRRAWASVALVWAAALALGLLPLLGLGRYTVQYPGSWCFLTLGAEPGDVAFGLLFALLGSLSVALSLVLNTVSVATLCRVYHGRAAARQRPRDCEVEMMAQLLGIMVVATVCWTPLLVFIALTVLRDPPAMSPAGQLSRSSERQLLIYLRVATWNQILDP
Description: TXA2 Receptor Binding Test 1
Blood from a New Zealand White rabbit is taken in a vessel containing ACD solution (prepared by dissolving 1.175 g of sodium citrate, 0.685 g of citric acid and 1 g of dextrose in 50 ml of distilled water) and centrifuged at 180×g for 10 minutes at room temperature to obtain platelet-rich plasma. The obtained platelet-rich plasma is centrifuged at […] at room temperature to precipitate platelets. The platelets are then suspended in 50 mM Tris-HCl buffer (pH 7.2, containing 0.154M of NaCl) and the suspension is centrifuged at 2800×g for 15 minutes at 4° C. These operations are repeated twice to prepare washed platelets and the concentration of the platelets are adjusted to a final concentration of 10 mg/ml (wet weight).
As the ligand of TXA2, tritium-labelled SQ29548 ([^3 H]SQ29548) is used. In the antagonism test, 20 μl of [^3 H]SQ29548 having a final concentration of 3 nM is added to 500 μl of a platelet suspension having a platelet concentration of 10 mg/ml and 2.6 μl of a solution of a test compound dissolved in an appropriate solvent is added thereto. After incubating the resulting mixture at 25° C. for 60 minutes, the mixture is filtered through a glass filter by the cell harvester method. After washing the filter with 50 mM Tris-HCl buffer (3×4 ml), the radioactivity of the filter is measured by a scintillation counter, thereby measuring the amount of the [^3 H]SQ29548 bound to platelets. In the saturation test, 20 μl of [^3 H]SQ29548 is added to a final concentration of 0.1-50 nM and 2.6 μl of BM13505 having a final concentration of 1 μM is added so as to check non-specific binding, followed by carrying out the binding test. The concentration of the test compound at which binding of [^3 H]SQ29548 is inhibited by 50% is determined as the IC50 value.
The results of the evaluation of the activities of the compounds of the present invention by this method are summarized d in Table 3.

PGI2 receptor = target: T2, PGI2 receptor (Homo sapiens, UniProt P43119); assay: PGI2 Receptor Binding Test ([3H]APS-314d, platelet membrane fraction); details: platelet membrane fraction 0.1 mg protein/ml, 4° C., 60 minutes, Ki=IC50/[1+(radioactive ligand concentration/Kd)]
T2 construct: platelet membrane fraction having a concentration of 0.1 mg protein/ml; endogenous in cells
T2 sequence (P43119 whole entry): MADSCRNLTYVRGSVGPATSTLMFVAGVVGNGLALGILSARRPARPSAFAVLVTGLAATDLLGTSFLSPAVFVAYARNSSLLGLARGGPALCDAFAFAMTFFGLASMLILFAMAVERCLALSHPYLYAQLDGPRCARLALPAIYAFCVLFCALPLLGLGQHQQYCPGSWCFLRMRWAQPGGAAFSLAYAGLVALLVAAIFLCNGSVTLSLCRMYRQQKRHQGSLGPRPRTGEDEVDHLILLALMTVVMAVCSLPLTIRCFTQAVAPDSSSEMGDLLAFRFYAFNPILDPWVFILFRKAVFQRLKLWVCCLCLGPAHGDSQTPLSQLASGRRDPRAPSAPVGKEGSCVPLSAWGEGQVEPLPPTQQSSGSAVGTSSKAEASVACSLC
Description: PGI2 Receptor Binding Test
As the ligand of PGI2 receptor, tritium-labelled (1R,2R,3aS,8bS)-2,3,3a,8-tetrahydro-2-hydroxy-1-[(E)-(3S,4S)-3-hydroxy-4-methyl-1-octene-6-ynyl]-1H-cyclopenta[b]benzofuran-5-butanoic acid ([^3 H]APS-314d) was used. The saturation test was carried out by reacting [^3 H]APS-314d (100 μl) having a final concentration of 3-100 nM with a suspension (100 μl) of platelet membrane fraction having a concentration of 0.1 mg protein/ml at 4° C. for 60 minutes under shaking. The competition test was carried out by mixing a mixture (100 μl) of a test compound dissolved in an appropriate solvent and then diluted and [^3 H]APS-314d, and the suspension of platelet membrane fraction (100 μl) having a concentration of 0.1 mg protein/ml, and allowing the mixture to react at 4° C. for 60 minutes under shaking. After the reaction, the resultant was filtered through a glass filter using a cell harvester to collect the membrane fraction on the glass filter. The filter was washed with a iced buffer and radioactivity was measured by scintillation counter. The non-specific binding to substances other than the platelets was measured by the reaction in the presence of sodium beraprost having a final concentration of 10 nM. The IC50 value of the test compound and Hill coefficient in the binding test was determined by Pseudo-Hill plot. The receptor dissociation constant (Ki value) was calculated according to the following equation from the IC50 value and the receptor dissociation constant (Kd value) of [^3 H]APS-314d determined in the saturation test.
Ki=IC50 /[1+(radioactive ligand concentration/Kd)]

TXA2 receptor [4] = target: T3, TXA2 receptor (Homo sapiens, UniProt P21731); assay: TXA2 Receptor Binding Test 2 ([3H]SQ29548, human platelet membrane fraction); details: 25° C., 30 minutes, pH 7.4, Ki=IC50/[1+(radioactive ligand concentration/Kd)]
T3 construct: the finally obtained precipitate was collected as the platelet membrane fraction; endogenous in cells; host or cells: membrane fraction of human platelets
T3 sequence (P21731 1-343): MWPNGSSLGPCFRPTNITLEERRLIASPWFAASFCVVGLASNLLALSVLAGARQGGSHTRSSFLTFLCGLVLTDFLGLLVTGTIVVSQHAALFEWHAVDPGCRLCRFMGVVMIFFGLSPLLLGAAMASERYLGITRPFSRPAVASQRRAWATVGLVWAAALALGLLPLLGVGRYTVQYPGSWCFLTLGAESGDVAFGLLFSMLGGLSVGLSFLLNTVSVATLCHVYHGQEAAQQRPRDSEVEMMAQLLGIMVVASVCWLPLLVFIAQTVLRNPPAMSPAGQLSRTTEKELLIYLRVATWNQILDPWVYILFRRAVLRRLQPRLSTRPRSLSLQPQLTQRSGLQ
Description: TXA2 Receptor Binding Test 2
Blood collected from human forearm vein and ACD solution (85 mM trisodium citrate, 65 mM citric acid, 2% glucose) in an amount of 1/10 volume of the blood were mixed the resultant was dividedly poured into Spitz tubes an amount of 8 ml/tube. The mixture was centrifuged at 200×g for 10 minutes at room temperature to obtain platelet-rich plasma and the obtained platelet-rich plasma was centrifuged at 1000×g for 15 minutes to obtain platelets. The platelets were washed by centrifugation using a washing buffer (115 mM sodium chloride, 4.3 mM potassium dihydrogen phosphate, 5.5 mM glucose, 1 mM disodium EDTA, 10 μM indomethacin, pH 6.5) and 1 ml of a melting buffer (10 mM Tris(hydroxymethyl)aminomethane, 5 mM magnesium chloride, 2 mM disodium EDTA, pH 7.4) was added. The resultant was frozen in liquid nitrogen and thawed at room temperature. By repeating freezing in liquid nitrogen and thawing totally three times, the platelets were ruptured. The resultant was washed three times by ultracentrifugation (40,000×g, each 20 minutes) using iced 5 mM Tris-HCl buffer, and the finally obtained precipitate was collected as the platelet membrane fraction.
As the ligand of TXA2, tritium-labelled SQ29548 ([^3 H]SQ29548) was used. As the solvent for the receptor binding reaction, 50 mM Tris-HCl buffer (5 mM magnesium chloride, pH 7.4) was used. […] The filter was washed with a iced buffer and radioactivity was measured by scintillation counter. The non-specific binding to substances other than the platelets was measured by the reaction in the presence of SQ29548 having a final concentration of […]. The IC50 value of the test compound and Hill coefficient in the binding test was determined by Pseudo-Hill plot. The receptor dissociation constant (Ki value) was calculated according to the following equation from the IC50 value and the receptor dissociation constant (Kd value) of [^3 H]SQ29548 determined in the saturation test. […]

Row | SMILES | IC50 [1] [nM] | IC50 [2] [nM] | IC50 (TXA2 receptor [3]) [nM] | Ki (PGI2 receptor) [nM] | Ki (TXA2 receptor [4]) [nM]
1 | Cc1oc2c(OCC(=O)O)cccc2c1CNS(=O)(=O)Cc1ccccc1 [Example 15, Methyl (3-((benzylsulfonylamino)methyl)-2-methylbenzofuran-7-yloxy)acetic acid] | 1000 | 201000 | 1100 |  | 
2 | Cc1oc2c(OCC(=O)O)cccc2c1CNS(=O)(=O)CCc1ccccc1 [Example 16, (3-(((2-phenylethyl)sulfonylamino)methyl)-2-methylbenzofuran-7-yloxy)aceticacid] | 500 | 403000 | 54.5 |  | 
3 | COC(=O)COc1cccc2c(CCSC(c3ccccc3)c3ccccc3)coc12 [Example 67, Methyl (3-(2-(diphenylmethylthio)ethyl)benzofuran-7-yloxy)acetate] |  |  |  |  | 310
4 | O=C(O)COc1cccc2c(CCSC(c3ccccc3)c3ccccc3)coc12 [Example 68] | 900 | 6200 |  | 410 | 

The remaining lines, values ahead:

Row | IC50 [1] [nM] | IC50 [2] [nM] | IC50 (TXA2 receptor [3]) [nM] | Ki (PGI2 receptor) [nM] | Ki (TXA2 receptor [4]) [nM] | SMILES
5 | 440 | 265000 | 51.3 |  |  | Cc1oc2c(OCC(=O)O)cccc2c1CCSCCc1ccccc1 [Example 31, (3-(2-(2-phenylethylthio)ethyl)-2-methylbenzofuran-7-yloxy)acetic acid]
6 | 4800 | 7800 |  | 380 | 7700 | O=C(O)COc1cccc2c(COCCC(c3ccccc3)c3ccccc3)coc12 [Example 48, (3-((3,3-diphenylpropyloxy)methyl)benzofuran-7-yloxy)acetic acid]
7 | 5100 |  | 26.7 |  |  | O=C(O)COc1cccc2c1ccn2CCNS(=O)(=O)c1ccccc1 [Example 104, (1-(2-(phenylsulfonylamino)ethyl)indole-4-yloxy)acetic acid]
8 | 1700 | 3600 |  | 440 | 3600 | O=C(O)COc1cccc2c1ccn2CCCC(c1ccccc1)c1ccccc1 [Example 118, (1-(4,4-diphenylbutyl)indole-4-yloxy)acetic acid]
